Results: patent US20190290620A1, “APPLICATIONS OF NOVEL THIAZOLE DERIVATIVE IN TREATING INFLAMMATORY BOWEL DISEASES” (EAST CHINA UNIVERSITY OF SCIENCE AND TECHNOLOGY, priority 2016, published 2019)
Marks after values point to notes of the source that are not given here.

Tested on: TNBS-induced ulcerative colitis model mice
Test: TNBS-induced mice ulcerative colitis model
Assay type: in vivo, BALB/c male mice
Set-up: key to Scores of gross morphological damages: 0 = no adhesion/ulcer/inflammation, 4+ = severe ulcers (+1 per cm)
Conditions: for Score (body weight index according to the disease activity index, DAI): 0-4 points by weight decrease; for Score (body weight index according to the disease activity index, DAI) / Length of the colon / Weight of the colon / Histopathology scores / Scores of gross morphological damages / weight/length ratio (average) of colon: ig 7 days, sulfasalazine 500 mg/kg; for Score (body weight index according to the disease activity index, DAI) / Length of the colon / Weight of the colon / Histopathology scores / Scores of gross morphological damages / weight/length ratio (average) of colon / Ratio of weight loss: compound 20 mg/kg; for Length of the colon / Weight of the colon: 24 hours after last administration; for Histopathology scores: H&E colon sections, epithelial cells and inflammatory cell infiltration points; for Scores of gross morphological damages: colon adhesion, ulceration, inflammation points; for weight/length ratio (average) of colon: colon weight (g) / length (cm); for Ratio of weight loss: ig daily for 7 days from day of modeling, positive drug sulfasalazine 500 mg/kg, 10 mice per group
Description: BALB/c male mice (each 18-22 g) of SPF level were purchased from Shanghai Slack Laboratory Animal Co., Ltd. and were used in experiments after adaptive feeding for 7 days.
BALB/c male mice were kept in an animal cage (daylight and darkness of 12 hours, respectively) at a temperature of 20-25° C. and relative humidity of 50-60%, free access to food and water.
Mice were randomly divided into normal control group, trinitrobenzenesulfonic acid (TNBS) model group, drug treatment group and positive drug control group (sulfasalazine 500 mg/kg).
All of the mice in model group and administration group were shaved in the abdomen (area 2×2 cm) and sensitized with 1% TNBS (dissolved in 50% ethanol). On the 7th day, the mice were fasted, but not water. After 24 hours, the mice were anesthetized through intraperitoneal injection of 0.1 ml of 10% chloral hydrate and 2% TNBS was used for lavation to establish a mouse model of ulcerative colitis. A gavage needle for rat was inserted into the colon of a mouse, the tip of the needle was about 3˜3.5 cm away from the anus, and 0.1 ml of modeling solution (5% TNBS and deionized water were mixed at a volume ratio of 4:1, and the obtained solution was mixed with absolute ethanol at a volume ratio of 1:1, so as to obtain the modeling solution) was injected. The mice were put back into the cage and wake up naturally. The mice in the normal control group were injected with 0.12 ml of solvent (50% ethanol solution) by the same manner.
Administration was started on the day of modeling (using 0.5% sodium carboxymethylcellulose, CMC-Na) for 7 consecutive days.
At 24 hours after the last administration, the mice were sacrificed by cervical dislocation, the peritoneum was cut open, and the whole colon was taken. The intestine was cut longitudinally along the mesenteric margin, rinsed with ice physiological saline, placed on ice, and the pathological changes of the colon were observed. The fat and mesentery were removed, the water was blotted with filter paper, the weight of the colon was weighed and the length was measured. The colon was fixed in 4% formaldehyde for more than 24 hours, dehydrated, paraffin-embedded and H&E stained, and the pathological sections were observed.
The mice were observed and recorded daily for mental state, fur color, and activities. The mice was weighed daily and observed for the stool traits. The body weight index according to the disease activity index (DAI) is as follows:
After the colon of a mouse was removed, the weight of the colon was measured with a precision electronic balance, the length was measured with a vernier caliper, and the weight/length ratio of the colon was calculated.
The criteria for scores were: no adhesion, no ulcer, no inflammation, 0 points; mild adhesion, local congestion, no ulcer, 1 point; severe adhesion, 1 ulcer (area less than 1 cm), no obvious inflammation, 2 points; more than 1 ulcers (area less than 1 cm) with inflammation, 3 points; 2 severe ulcers (area greater than 1 cm) with inflammation, 4 points; and 1 point for each 1 cm increase in ulcer area.
Pathological changes of colon tissue were observed under light microscope, and the scores were recorded. The criteria for scores are as follows:
1) Epithelial cells: normal morphology, 0 points; loss of goblet cells, 1 point; large loss of goblet cells, 2 points; loss of crypt cells, 3 points; large loss of crypt cells, 4 points.
2) Infiltration of inflammatory cells: no infiltration, 0 points; infiltration in the basal layer of the crypt, 1 point; infiltration to the muscular layer of the mucosa, 2 points; infiltration to the muscular layer of the mucosa with mucosal thickening and obvious edema, 3 points; infiltration to the submucosal layer, 4 points.
Data were expressed as […] (mean±S.E.M.), data were analyzed using SPSS statistical software, and one-way ANOVA and Tukey's HSD post hoc test were used for comparison between groups. p<0.05 was considered statistically significant.

Row | Structure (SMILES) | Score (body weight index according to the disease activity index, DAI) | Length of the colon | Weight of the colon | Histopathology scores | Scores of gross morphological damages | weight/length ratio (average) of colon | Ratio of weight loss | diarrhea of the mice (general condition) (FIG. 2, TNBS-mediated UC model BALB/c mice, Compound 16 in three different dosage groups, sulfasalazine control group) | effect on colonic lesions, comparison of dosages (FIG. 3, 5 mg/kg) | extent of ulcer lesions of colon and visceral adhesions (FIG. 3, compound 312 at 5 mg/kg, 20 mg/kg, 50 mg/kg and positive drugs, vs model group) | histopathology of colon, comparison of dosages (FIG. 4, 5 mg/kg and 50 mg/kg vs 20 mg/kg) | histopathology of colon (HE staining, mucosal integrity / lesions) (FIG. 4, compared with the model group)
1 | CN(/N=C/c1ccccc1C(=O)O)c1nc(-c2ccccc2Cl)cs1 [Compound 1, (E)-4-(2-chlorophenyl)-2-[1-methyl-2-(2-carboxybenzylidene)hydrazino]thiazole] | 1 | 5.575 ± 0.452 cm | 0.162 ± 0.027 g | 2.54 ± 0.62 | 2.32 ± 0.69 | 0.029# | 2.61 ± 4.53 |  |  |  |  | 
2 | CCN(/N=C/c1ccccc1C(=O)O)c1nc(-c2ccccc2Cl)cs1 [Compound 2, (E)-4-(2-chlorophenyl)-2-[1-ethyl-2-(2-carboxybenzylidene)hydrazino]thiazole] | 1 |  |  | 3.10 ± 0.55 | 3.37 ± 0.60 |  | 1.22 ± 3.68 |  |  |  |  | 
3 | CCCN(/N=C/c1ccccc1C(=O)O)c1nc(-c2ccccc2Cl)cs1 [Compound 3, (E)-4-(2-chlorophenyl)-2-[1-propyl-2-(2-carboxybenzylidene)hydrazino]thiazole] | 2 | 5.699 ± 0.368 cm | 0.159 ± 0.023 g |  |  | 0.028# | 4.26 ± 4.65 |  |  |  |  | 
4 | CN(/N=C/c1ccc(C(F)(F)F)cc1C(=O)O)c1nc(-c2ccccc2Cl)cs1 [Compound 8, (E)-4-(2-chlorophenyl)-2-[1-methyl-2-(4-trifluoromethyl-2-carboxybenzylidene)hydrazino]thiazole] | 1 | 6.005 ± 0.452 cm | 0.157 ± 0.027 g | 1.59 ± 0.68 | 1.42 ± 0.78 | 0.026# | 1.07 ± 2.98 |  |  |  |  | 
5 | O=C(O)c1cc(C(F)(F)F)ccc1/C=N/Nc1nc(-c2ccccc2Cl)cs1 [Compound 8-1] | 1 |  |  |  |  |  | 3.72 ± 1.60 |  |  |  |  | 
6 | Cc1ccc(/C=N/N(C)c2nc(-c3ccccc3Cl)cs2)c(C(=O)O)c1 [Compound 9, (E)-4-(2-chlorophenyl)-2-[1-methyl-2-(4-methyl-2-carboxybenzylidene)hydrazino]thiazole] | 1 |  |  |  |  |  | 3.29 ± 4.70 |  |  |  |  | 
7 | Cc1ccc(/C=N/Nc2nc(-c3ccccc3Cl)cs2)c(C(=O)O)c1 [Compound 9-1] |  | 5.985 ± 0.363 cm | 0.152 ± 0.023 g | 3.94 ± 0.51 | 3.63 ± 0.71 | 0.025# |  |  |  |  |  | 
8 | CN(/N=C/c1ccc(F)cc1C(=O)O)c1nc(-c2ccccc2Cl)cs1 [Compound 10, (E)-4-(2-chlorophenyl)-2-[1-methyl-2-(2-carboxyl-4-fluorobenzylidene)hydrazino]thiazole] | 1 | 6.321 ± 0.436 cm | 0.162 ± 0.045 g | 2.09 ± 0.44 | 1.02 ± 0.41 | 0.026# | 1.92 ± 3.20 |  |  |  |  | 
9 | Cc1sc(N(C)/N=C/c2ccccc2C(=O)O)nc1-c1ccccc1 [Compound 12, (E)-5-methyl-4-phenyl-2-[11-methyl-2-(2-carboxybenzylidene)hydrazino]thiazole] | 1 | 5.075 ± 0.468 cm | 0.154 ± 0.012 g |  |  | 0.030# | 2.33 ± 2.99 |  |  |  |  | 
10 | Cc1sc(N/N=C/c2ccccc2C(=O)O)nc1-c1ccccc1Cl [Compound 15, (E)-5-methyl-4-(2-chlorophenyl)-2-(2-carboxylbenzylidenehydrazino)thiazole] |  | 5.546 ± 0.402 cm | 0.163 ± 0.023 g |  |  | 0.029# |  |  |  |  |  | 
11 | O=C(O)c1ccccc1/C=N/Nc1nc(-c2ccccc2Cl)cs1 [Compound 16, (E)-4-(2-chlorophenyl)-2-(2-carboxybenzylidenehydrazino)thiazole] | 1 |  |  | 2.54 ± 0.49 | 2.22 ± 0.54 |  | 3.55 ± 1.47 | relieved compared with the model group | best effect on colonic lesions | can improve the extent of ulcer lesions of colon and visceral adhesions | more effective than those at 20 mg/kg | mucosal integrity was improved to a greater extent
12 | Cc1sc(N/N=C/c2ccccc2C(=O)O)nc1-c1ccccc1 [Compound 17, (E)-5-methyl-4-phenyl-2-(2-carboxylbenzylidenehydrazino)thiazole] |  | 5.124 ± 0.332 cm | 0.159 ± 0.034 g |  |  | 0.030# |  |  |  |  |  | 
13 | CN(/N=C/c1ccccc1C(=O)O)c1nc(-c2ccccc2)cs1 [Compound 20, (E)-4-phenyl-2-[1-methyl-2-(2-carboxybenzylidene)hydrazino]thiazole] |  |  |  | 3.65 ± 0.42 | 3.33 ± 0.59 |  |  |  |  |  |  | 
14 | CN(/N=C/c1ccccc1C(=O)O)c1nc(-c2cccc(Cl)c2)cs1 [Compound 21, (E)-4-(3-chlorophenyl)-2-[1-methyl-2-(2-carboxybenzylidene)hydrazino]thiazole] |  | 4.986 ± 0.452 cm | 0.158 ± 0.025 g | 2.54 ± 0.62 | 2.31 ± 0.79 | 0.032# |  |  |  |  |  | 
15 | CN(/N=C/c1cc(F)c(F)cc1C(=O)O)c1nc(-c2ccccc2Cl)cs1 [Compound 23] | 3 | 4.997 ± 0.476 cm | 0.153 ± 0.027 g | 2.32 ± 0.58 | 2.02 ± 0.60 | 0.030# | 6.27 ± 2.76 |  |  |  |  | 
16 | O=C(O)c1ccccc1/C=N/Nc1nc(-c2cc(Cl)ccc2Cl)cs1 [Compound 55, (E)-2-((2-(4-(2,5-dichlorophenyl)thiazol-2-yl)hydrazono)methyl)benzoic Acid] | 1 | 5.675 ± 0.222 cm | 0.148 ± 0.033 g | 1.68 ± 0.32 | 1.99 ± 0.52 | 0.026# | 2.74 ± 4.61 |  |  |  |  | 
17 | O=C(O)c1c(F)cccc1/C=N/Nc1nc(-c2ccccc2Cl)cs1 [Compound 58, (E)-2-((2-(4-(2-chlorophenyl)thiazol-2-yl)hydrazono)methyl)-6-fluorobenzoic Acid] |  | 5.575 ± 0.392 cm | 0.162 ± 0.028 g | 3.59 ± 0.61 | 4.32 ± 0.79 | 0.029# |  |  |  |  |  | 
